{"source": "ChEMBL document CHEMBL1201862", "about": "“PubChem BioAssay data set” (2004)", "assay_in_all_cases": "NCI anticancer screen, dose series, 48 h", "key": {"[1]": {"test_system": "SF-295"}, "[2]": {"test_system": "UO-31"}, "[3]": {"test_system": "K562"}, "[4]": {"test_system": "SR"}, "[5]": {"test_system": "HCT-15"}, "[6]": {"test_system": "RXF 631"}, "[7]": {"test_system": "SK-MEL-5"}, "[8]": {"test_system": "SF-539"}, "[9]": {"test_system": "786-0"}, "[10]": {"test_system": "SNB-19"}, "[11]": {"test_system": "LXFL 529"}, "[12]": {"test_system": "HOP-62"}, "[13]": {"test_system": "EKVX"}, "[14]": {"test_system": "CCRF-CEM"}, "[15]": {"test_system": "OVCAR-8"}, "[16]": {"test_system": "DLD-1"}, "[17]": {"test_system": "M19-MEL"}, "[18]": {"test_system": "HL-60"}, "[19]": {"test_system": "IGROV-1"}, "[20]": {"test_system": "SNB-75"}, "[21]": {"test_system": "SF-268"}, "[22]": {"test_system": "M14"}, "[23]": {"test_system": "NCI-H23"}, "[24]": {"test_system": "HT-29"}, "[25]": {"test_system": "SK-MEL-2"}, "[26]": {"test_system": "OVCAR-4"}, "[27]": {"test_system": "A549"}, "[28]": {"test_system": "COLO 205"}, "[29]": {"test_system": "SK-MEL-28"}, "[30]": {"test_system": "TK-10"}, "[31]": {"test_system": "NCI-H226"}, "[32]": {"test_system": "XF498"}, "[33]": {"test_system": "ACHN"}, "[34]": {"test_system": "MOLT-4"}, "[35]": {"test_system": "HCC 2998"}, "[36]": {"test_system": "A498"}, "[37]": {"test_system": "SN12C"}, "[38]": {"test_system": "OVCAR-3"}, "[39]": {"test_system": "UACC-257"}, "[40]": {"test_system": "HCT-116"}, "[41]": {"test_system": "DMS-114"}, "[42]": {"test_system": "SW-620"}, "[43]": {"test_system": "DMS-273"}, "[44]": {"test_system": "UACC-62"}, "[45]": {"test_system": "U-251"}, "[46]": {"test_system": "KM-20L2"}, "[47]": {"test_system": "NCI-H460"}, "[48]": {"test_system": "RPMI-8226"}, "[49]": {"test_system": "RXF 393"}, "[50]": {"test_system": "Malme-3M"}, "[51]": {"test_system": "LOX IMVI"}, "[52]": {"test_system": "SK-OV-3"}, "[53]": {"test_system": "KM12"}, "[54]": {"test_system": "NCI-H522"}, "[55]": {"test_system": "CAKI-1"}, "[56]": {"test_system": "OVCAR-5"}}, "note": "Several values for one entry are separate records, joined by “and”; a condition that tells them apart may be missing. Equal values may be shown once.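 Briefly, cells in 96-well plates were exposed to five compound concentrations for 48 h, and endpoints were estimated by linear interpolation. Abbreviation: GI50, concentration required for 50% inhibition of growth.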 Activity calls are given as the source filed them. No stated cut-off is given here; in the data, active = GI50 up to about 1.1 µM and inactive = higher."}
{"molecule": "COC(=O)CC(C(C(C)=O)C(=O)OCc1ccccc1)N1C(=O)OCC1c1ccccc1", "note": "(configuration not stated)", "values": [{"measurement": "GI50", "setting": "[1]", "result": "> 100 µM (inactive)"}, {"measurement": "GI50", "setting": "[2]", "result": "44.4 µM (inactive)"}, {"measurement": "GI50", "setting": "[3]", "result": "> 100 µM (inactive)"}, {"measurement": "GI50", "setting": "[4]", "result": "74.5 µM (inactive)"}, {"measurement": "GI50", "setting": "[5]", "result": "> 100", "unit": "µM"}, {"measurement": "GI50", "setting": "[6]", "result": "> 100 µM (inactive)"}, {"measurement": "GI50", "setting": "[7]", "result": "47.8 µM (inactive)"}, {"measurement": "GI50", "setting": "[8]", "result": "> 100 µM (inactive)"}, {"measurement": "GI50", "setting": "[9]", "result": "> 100 µM (inactive)"}, {"measurement": "GI50", "setting": "[10]", "result": "> 100 µM (inactive)"}, {"measurement": "GI50", "setting": "[11]", "result": "83.2 µM (inactive)"}, {"measurement": "GI50", "setting": "[12]", "result": "> 100 µM (inactive)"}, {"measurement": "GI50", "setting": "[13]", "result": "> 100 µM (inactive)"}, {"measurement": "GI50", "setting": "[14]", "result": "> 100 µM (inactive)"}, {"measurement": "GI50", "setting": "[15]", "result": "> 100 µM (inactive)"}, {"measurement": "GI50", "setting": "[16]", "result": "47.2 µM (inactive)"}, {"measurement": "GI50", "setting": "[17]", "result": "> 100 µM (inactive)"}, {"measurement": "GI50", "setting": "[18]", "result": "91.6 µM (inactive)"}, {"measurement": "GI50", "setting": "[19]", "result": "50 µM (inactive)"}, {"measurement": "GI50", "setting": "[20]", "result": "15.5 µM (inactive)"}, {"measurement": "GI50", "setting": "[21]", "result": "> 100 µM (inactive)"}, {"measurement": "GI50", "setting": "[22]", "result": "> 100 µM (inactive)"}, {"measurement": "GI50", "setting": "[23]", "result": "> 100 µM (inactive)"}, {"measurement": "GI50", "setting": "[24]", "result": "> 100 µM (inactive)"}, {"measurement": "GI50", "setting": "[25]", "result": "> 100 µM (inactive)"}, {"measurement": "GI50", "setting": "[26]", "result": "71.3 µM (inactive)"}, {"measurement": "GI50", "setting": "[27]", "result": "62.8 µM (inactive)"}, {"measurement": "GI50", "setting": "[28]", "result": "> 100 µM (inactive)"}, {"measurement": "GI50", "setting": "[29]", "result": "> 100 µM (inactive)"}, {"measurement": "GI50", "setting": "[30]", "result": "> 100 µM (inactive)"}, {"measurement": "GI50", "setting": "[31]", "result": "60.5 µM (inactive)"}, {"measurement": "GI50", "setting": "[32]", "result": "53.5 µM (inactive)"}, {"measurement": "GI50", "setting": "[33]", "result": "> 100 µM (inactive)"}, {"measurement": "GI50", "setting": "[34]", "result": "45.9 µM (inactive)"}, {"measurement": "GI50", "setting": "[35]", "result": "> 100 µM (inactive)"}, {"measurement": "GI50", "setting": "[36]", "result": "67.9 µM (inactive)"}, {"measurement": "GI50", "setting": "[37]", "result": "> 100 µM (inactive)"}, {"measurement": "GI50", "setting": "[38]", "result": "87.9 µM (inactive)"}, {"measurement": "GI50", "setting": "[39]", "result": "93.5 µM (inactive)"}, {"measurement": "GI50", "setting": "[40]", "result": "> 100 µM (inactive)"}, {"measurement": "GI50", "setting": "[41]", "result": "52 µM (inactive)"}, {"measurement": "GI50", "setting": "[42]", "result": "> 100 µM (inactive)"}, {"measurement": "GI50", "setting": "[43]", "result": "> 100 µM (inactive)"}, {"measurement": "GI50", "setting": "[44]", "result": "44.2 µM (inactive)"}, {"measurement": "GI50", "setting": "[45]", "result": "65.2 µM (inactive)"}, {"measurement": "GI50", "setting": "[46]", "result": "> 100 µM (inactive)"}, {"measurement": "GI50", "setting": "[47]", "result": "75.2 µM (inactive)"}, {"measurement": "GI50", "setting": "[48]", "result": "51.5 µM (inactive)"}, {"measurement": "GI50", "setting": "[49]", "result": "> 100 µM (inactive)"}, {"measurement": "GI50", "setting": "[50]", "result": "> 100 µM (inactive)"}, {"measurement": "GI50", "setting": "[51]", "result": "> 100 µM (inactive)"}]}
{"molecule": "CC(=O)OCC1OC(n2c(=S)n(-c3ccccc3)c(=O)c3cc(Br)ccc32)C(OC(C)=O)C(OC(C)=O)C1OC(C)=O", "note": "(configuration not stated)", "values": [{"measurement": "GI50", "setting": "[52]", "result": "> 100 µM (inactive)"}, {"measurement": "GI50", "setting": "[2]", "result": "> 100 µM (inactive)"}, {"measurement": "GI50", "setting": "[3]", "result": "> 100 µM (inactive)"}, {"measurement": "GI50", "setting": "[5]", "result": "> 100", "unit": "µM"}, {"measurement": "GI50", "setting": "[6]", "result": "> 100 µM (inactive)"}, {"measurement": "GI50", "setting": "[7]", "result": "> 100 µM (inactive)"}, {"measurement": "GI50", "setting": "[8]", "result": "> 100 µM (inactive)"}, {"measurement": "GI50", "setting": "[9]", "result": "> 100 µM (inactive)"}, {"measurement": "GI50", "setting": "[10]", "result": "> 100 µM (inactive) and 70.5 µM (inactive)"}, {"measurement": "GI50", "setting": "[11]", "result": "> 100 µM (inactive)"}, {"measurement": "GI50", "setting": "[12]", "result": "> 100 µM (inactive)"}, {"measurement": "GI50", "setting": "[53]", "result": "> 100 µM (inactive)"}, {"measurement": "GI50", "setting": "[13]", "result": "> 100 µM (inactive)"}, {"measurement": "GI50", "setting": "[14]", "result": "> 100 µM (inactive)"}, {"measurement": "GI50", "setting": "[15]", "result": "> 100 µM (inactive)"}, {"measurement": "GI50", "setting": "[54]", "result": "> 100 µM (inactive)"}, {"measurement": "GI50", "setting": "[16]", "result": "> 100 µM (inactive)"}, {"measurement": "GI50", "setting": "[17]", "result": "> 100 µM (inactive)"}, {"measurement": "GI50", "setting": "[18]", "result": "> 100 µM (inactive)"}, {"measurement": "GI50", "setting": "[19]", "result": "> 100 µM (inactive)"}, {"measurement": "GI50", "setting": "[21]", "result": "> 100 µM (inactive)"}, {"measurement": "GI50", "setting": "[22]", "result": "> 100 µM (inactive)"}, {"measurement": "GI50", "setting": "[23]", "result": "> 100 µM (inactive)"}, {"measurement": "GI50", "setting": "[24]", "result": "> 100 µM (inactive)"}, {"measurement": "GI50", "setting": "[27]", "result": "> 100 µM (inactive)"}, {"measurement": "GI50", "setting": "[28]", "result": "> 100 µM (inactive)"}, {"measurement": "GI50", "setting": "[29]", "result": "> 100 µM (inactive)"}, {"measurement": "GI50", "setting": "[31]", "result": "> 100 µM (inactive)"}, {"measurement": "GI50", "setting": "[33]", "result": "> 100 µM (inactive)"}, {"measurement": "GI50", "setting": "[34]", "result": "> 100 µM (inactive) and 94.6 µM (inactive)"}, {"measurement": "GI50", "setting": "[35]", "result": "> 100 µM (inactive)"}, {"measurement": "GI50", "setting": "[36]", "result": "> 100 µM (inactive)"}, {"measurement": "GI50", "setting": "[37]", "result": "> 100 µM (inactive)"}, {"measurement": "GI50", "setting": "[55]", "result": "> 100 µM (inactive)"}, {"measurement": "GI50", "setting": "[38]", "result": "> 100 µM (inactive)"}, {"measurement": "GI50", "setting": "[56]", "result": "> 100 µM (inactive)"}, {"measurement": "GI50", "setting": "[39]", "result": "> 100 µM (inactive)"}, {"measurement": "GI50", "setting": "[41]", "result": "> 100 µM (inactive)"}, {"measurement": "GI50", "setting": "[42]", "result": "> 100 µM (inactive)"}, {"measurement": "GI50", "setting": "[43]", "result": "> 100 µM (inactive)"}, {"measurement": "GI50", "setting": "[44]", "result": "> 100 µM (inactive)"}, {"measurement": "GI50", "setting": "[45]", "result": "> 100 µM (inactive)"}, {"measurement": "GI50", "setting": "[46]", "result": "> 100 µM (inactive)"}, {"measurement": "GI50", "setting": "[47]", "result": "> 100 µM (inactive)"}, {"measurement": "GI50", "setting": "[48]", "result": "> 100 µM (inactive)"}, {"measurement": "GI50", "setting": "[51]", "result": "> 100 µM (inactive)"}]}
